2 molecules from ChEMBL document CHEMBL4342459, “The Race to Bash NASH: Emerging Targets and Drug Development in a Complex Liver Disease” (J Med Chem, 2020) can be followed below.

Series [1] is described as follows: Oral bioavailability in rat. The class given is ADME, organism-based. Particulars: in vivo.
Series [2] is described as follows: Half life in rat. The format is ADME. Particulars: in vivo.
The target of series [3] is T1, Diacylglycerol O-acyltransferase 2 (Homo sapiens, UniProt Q96PD7).
T1 sequence (Q96PD7 whole entry): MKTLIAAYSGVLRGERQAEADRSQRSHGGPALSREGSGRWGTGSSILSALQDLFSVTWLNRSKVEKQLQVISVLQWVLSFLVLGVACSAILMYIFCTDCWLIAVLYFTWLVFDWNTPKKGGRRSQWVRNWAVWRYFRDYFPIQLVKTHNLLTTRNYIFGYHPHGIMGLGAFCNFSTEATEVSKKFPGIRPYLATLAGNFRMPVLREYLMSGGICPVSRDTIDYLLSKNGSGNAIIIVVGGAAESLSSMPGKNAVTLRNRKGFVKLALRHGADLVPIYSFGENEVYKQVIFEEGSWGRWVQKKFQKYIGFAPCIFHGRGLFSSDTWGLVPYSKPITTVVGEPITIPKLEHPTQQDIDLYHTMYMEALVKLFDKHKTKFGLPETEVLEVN
The experiment in a line: Inhibition of recombinant FLAG-tagged human DGAT2 expressed in SF9 cells after 1 hr by TopCount assay.

Series [4] has as its target T2, Diacylglycerol O-acyltransferase 1 (Homo sapiens, UniProt O75907).
T2 sequence (O75907 whole entry): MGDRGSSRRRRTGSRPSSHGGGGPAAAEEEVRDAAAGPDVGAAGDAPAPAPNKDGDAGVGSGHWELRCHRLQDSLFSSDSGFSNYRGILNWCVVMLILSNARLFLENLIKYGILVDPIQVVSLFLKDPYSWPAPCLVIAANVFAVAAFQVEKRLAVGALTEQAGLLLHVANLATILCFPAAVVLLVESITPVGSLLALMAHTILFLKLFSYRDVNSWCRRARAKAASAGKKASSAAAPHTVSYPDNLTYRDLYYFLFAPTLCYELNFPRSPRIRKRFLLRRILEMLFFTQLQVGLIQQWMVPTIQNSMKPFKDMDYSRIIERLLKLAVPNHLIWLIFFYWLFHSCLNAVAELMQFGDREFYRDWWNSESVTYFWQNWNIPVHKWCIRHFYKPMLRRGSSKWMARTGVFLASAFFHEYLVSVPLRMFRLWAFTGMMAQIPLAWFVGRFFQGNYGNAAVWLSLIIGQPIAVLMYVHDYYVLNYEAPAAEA
Description: Inhibition of recombinant FLAG-tagged human DGAT1 expressed in SF9 cells after 1 hr by TopCount assay.

pIC50: −log10 of the molar value. Bounds are passed on as bounds.

`CC(C)c1onc(-c2c(Cl)cccc2Cl)c1COc1ccc(/C=C/c2cccc(C(=O)O)c2)c(Cl)c1` yielded a bioavailability in series [1] of 10%. The molecule also showed a half-life in series [2] of 3.5 h.
`Cc1nc(C)c(-c2ccc(C3CCC(CC(=O)O)CC3)cc2)nc1C(N)=O` (centres undefined) [AZD-7687]: the pIC50 is 7.10 in series [3] and under 3.52 in series [4].
